Measurements published in patent US20110195911A1, “SYNTHETIC ANALOGS OF THE JUXTAMEMBRANE DOMAIN OF IGF1R AND USES THEREOF” (THE UNITED STATES OF AMERICA,AS REPRESENTED BY THE …, priority 2008, published 2011).
Where a SMILES comes first, the peptide text is derived from it. [ ]: non-standard residue; d: D form. The star is where a group is joined. Palmitoyl = CCCCCCCCCCCCCCCC(=O)*

Test system: MCF-7 breast cancer cells
Assay: MTT cell toxicity assay in MCF-7 breast cancer cells
Type: cell-based
Conditions: MCF-7 cells, MTT; for GI50 / TGI: final 0.5% FBS, two days with compound; for TGI: concentration of total growth inhibition (cytostatic); for growth inhibition / potency in MCF-7 cells (in words): comparison with related peptides
Protocol: Cell Toxicity Assays: MCF-7 (breast cancer), T47D (breast cancer), Colo 205 (colon cancer), JM-1 (rat hepatoma), Sk Me1-2 (melanoma), PLC (human hepatoma), and HepG2 (human hepatoma) cells were obtained from American Type Cell Culture Collection. MCF-7 cells were grown in RPMI medium supplemented with 10% Fetal Bovine Serum. The rest of the cell lines were grown in DMEM medium supplemented with 10% Fetal Bovine Serum.
MTT 43-(4,5-Dimethylthiazol-2-yl)-2,5-diphenyltetrazolium) cell assay was performed using MCF-7 breast cancer cells. For the assay, cells were seeded into 96 well plates in medium containing 1% Fetal Bovine Serum and 100 μL of a cell suspension containing 5000 cells per well. Wells containing medium-only, and wells containing untreated cells, served as controls.
Seeded cells were allowed to attach and grow in the wells for 24 hours. A 5 mM stock solution of each peptide was made by dissolving approximately 1 mg of peptide in appropriate amount of DMSO. 2 mL dilutions were used to make 0.2 μM, 1.0 μM, 5.0 μM, and 10.0 μM concentration solutions of the compounds in serum-free medium. 100 μl, of the resulting 2× solutions were added to the corresponding wells to provide a final FBS concentration of 0.5% and 0.1 μM, 0.5 μM, 2.5 μM, and 5.0 μM dilutions of inhibitors. The cells were incubated with test compounds for two days. The control wells were given 100 μL of medium to ensure maximum similarity to the test wells so that all of the wells had 200 μL of medium during the growth period. An individual plate was made for Time Zero, to which the dye was added at the time of addition of compounds.
An alternative potency assay was used to test compounds in MCF-7 (breast cancer), T47D (breast cancer), Colo 205 (colon cancer), JM-1 (rat hepatoma), Sk MeI-2 (melanoma), PLC (human hepatoma), and HepG2 (human hepatoma) cells. Cells were suspended at a concentration of approximately 5000 cells per 100 μL of suspension in a 5% FBS RPMI medium. The cells were seeded into 96-count wells and incubated over night. After one day's incubation, the 5% FBS medium was aspirated and replaced with 100 μL of no serum RPMI medium containing 1 mg Bovine Serum Albumin (BSA) per 1 mL RPMI. Various concentrations of the test compounds were prepared by dilution in no-serum medium containing 1 mg BSA/mL. 75 μL of the test compound solutions were added to the wells, and the cells were allowed to incubate for 15-20 minutes, after which time 25 μL of human recombinant IGF-1 (Peprotech) solution was added to the wells to attain final concentrations of 10 ng IGF-1/mL medium. The control wells were given 175 μL of no-serum medium in addition to 25 μL of IGF-1 solution. An individual plate was made for time zero, in which the medium was also aspirated and replaced with 175 μL of no-serum medium and 25 μL of IGF-1. 15 μL of MTT dye was added and let incubate for 4 hours, after which time a stop stop solubilization solution was added. The stop solution lysed the cells and released the dye reduced by the remaining living cells. Absorbance of the wells at 544 nm was determined by a FLUOstar/POLARstar Galaxy (BMG Lab Technologies GmbH) microplate reader. The activity was calculated from the data using the formula: 100×[(T−T0)/(C−T0)] for T>T0 and 100×[(T−T0)/T0] for T<T0, wherein T0 corresponds to cell density at the time of drug addition, “T” is the optical density of the test well after a 48-h period of exposure to test drug, and “C” is the control optical density. The GI50 measures the growth inhibitory power of the test agent, and is defined as the concentration of test drug where 100×(T−T0)/(C−T0)=50. The TGI is the concentration of test drug where 100×(T−T0)/(C−T0)=0. Thus, the TGI signifies a cytostatic effect.

SMILES	GI50 [nM]	TGI [nM]	growth inhibition / potency in MCF-7 cells (in words)	cell killing activity (in words)
CCCCCCCCCCCCCCCC(=O)N[C@@H](CO)C(=O)N[C@@H](CCCNC(=N)N)C(=O)N[C@@H](CC(C)C)C(=O)NCC(=O)N[C@@H](CC(N)=O)C(=O)NCC(=O)N[C@H](C(=O)N[C@@H](CC(C)C)C(=O)N[C@@H](Cc1ccc(O)cc1)C(N)=O)C(C)C [Peptide 19, Pal-SRLGNGVLY-NH2] (Palmitoyl-SRLGNGVLY-NH2)	150 ± 50	2000 ± 100	gradual reduction in potency	–
CCCCCCCCCCCCCCCC(=O)N[C@@H](CCCNC(=N)N)C(=O)N[C@@H](CC(C)C)C(=O)NCC(=O)N[C@@H](CC(N)=O)C(=O)NCC(=O)N[C@H](C(=O)N[C@@H](CC(C)C)C(=O)N[C@@H](Cc1ccc(O)cc1)C(N)=O)C(C)C [Peptide 20, Pal-RLGNGVLY-NH2] (Palmitoyl-RLGNGVLY-NH2)	200 ± 6	>5000	gradual reduction in potency	–
CCCCCCCCCCCCCCCC(=O)N[C@@H](C(=O)N[C@H](CO)C(=O)N[C@H](C)C(=O)N[C@H](Cc1ccc(O)cc1)C(=O)N[C@H](CC(C)C)C(=O)N[C@@H](C(=O)NCC(=O)N[C@H](CC(N)=O)C(=O)NCC(=O)N[C@H](CC(C)C)C(=O)N[C@H](CCCNC(=N)N)C(=O)N[C@H](CO)C(=O)N[C@H](CC(N)=O)C(=O)N[C@H](CC(N)=O)C(=O)N[C@H](CCCNC(=N)N)C(N)=O)C(C)C)C(C)C [Peptide 21, Pal-VSAYLVGNGLRSNNR-NH2] (Palmitoyl-[dV][dS][dA][dY][dL][dV]G[dN]G[dL][dR][dS][dN][dN][dR]-NH2)	–	100 ± 5	did not improve or diminish the inhibitory activity	–
CCCCCCCCCCCCCCCC(=O)N[C@H](Cc1ccc(O)cc1)C(=O)N[C@H](CC(C)C)C(=O)N[C@@H](C(=O)NCC(=O)N[C@H](CC(N)=O)C(=O)NCC(=O)N[C@H](CC(C)C)C(=O)N[C@H](CCCNC(=N)N)C(=O)N[C@H](CO)C(=O)N[C@H](CC(N)=O)C(=O)N[C@H](CC(N)=O)C(=O)N[C@H](CCCNC(=N)N)C(N)=O)C(C)C [Peptide 22, Pal-YLVGNGLRSNNR-NH2] (Palmitoyl-[dY][dL][dV]G[dN]G[dL][dR][dS][dN][dN][dR]-NH2)	–	500 ± 25	equipotent to peptide 18	enhanced cell killing activity
CCCCCCCCCCCCCCCC(=O)N[C@@H](Cc1c[nH]cn1)C(=O)N[C@@H](CCCNC(=N)N)C(=O)N[C@@H](CCCCN)C(=O)N[C@@H](CCCNC(=N)N)C(=O)N[C@@H](CC(N)=O)C(=O)N[C@@H](CC(N)=O)C(=O)N[C@@H](CO)C(=O)N[C@@H](CCCNC(=N)N)C(=O)N[C@@H](CC(C)C)C(=O)NCC(=O)N[C@@H](CC(N)=O)C(=O)NCC(=O)N[C@H](C(=O)N[C@@H](CC(C)C)C(=O)N[C@@H](Cc1ccc(O)cc1)C(=O)N[C@@H](C)C(=O)N[C@@H](CO)C(=O)N[C@H](C(=O)N[C@@H](CC(N)=O)C(=O)N1CCC[C@H]1C(N)=O)C(C)C)C(C)C [Peptide 23] (Palmitoyl-HRKRNNSRLGNGVLYASVNP-NH2)	100 ± 50	>5000	increased the potency	–
CCCCCCCCCCCCCCCC(=O)N[C@H](C(=O)N[C@@H](Cc1ccccc1)C(=O)N[C@@H](Cc1c[nH]cn1)C(=O)N[C@@H](CCCNC(=N)N)C(=O)N[C@@H](CCCCN)C(=O)N[C@@H](CCCNC(=N)N)C(=O)N[C@@H](CC(N)=O)C(=O)N[C@@H](CC(N)=O)C(=O)N[C@@H](CO)C(=O)N[C@@H](CCCNC(=N)N)C(=O)N[C@@H](CC(C)C)C(=O)NCC(=O)N[C@@H](CC(N)=O)C(=O)NCC(=O)N[C@H](C(=O)N[C@@H](CC(C)C)C(=O)N[C@@H](Cc1ccc(O)cc1)C(=O)N[C@@H](C)C(=O)N[C@@H](CO)C(=O)N[C@H](C(=O)N[C@@H](CC(N)=O)C(N)=O)C(C)C)C(C)C)C(C)C [Peptide 24] (Palmitoyl-VFHRKRNNSRLGNGVLYASVN-NH2)	100 ± 50	1100 ± 100	–	–
CCCCCCCCCCCCCCCC(=O)N[C@@H](CCCCN)C(=O)N[C@@H](CCCNC(=N)N)C(=O)N[C@@H](CC(N)=O)C(=O)N[C@@H](CC(N)=O)C(=O)N[C@@H](CO)C(=O)N[C@@H](CCCNC(=N)N)C(=O)N[C@@H](CC(C)C)C(=O)NCC(=O)N[C@@H](CC(N)=O)C(=O)NCC(=O)N[C@H](C(=O)N[C@@H](CC(C)C)C(=O)N[C@@H](Cc1ccc(O)cc1)C(N)=O)C(C)C [Peptide 27, Pal-KRNNSRLGNGVLY-NH2] (Palmitoyl-KRNNSRLGNGVLY-NH2)	1100 ± 60	2500 ± 500	–	–
CCCCCCCCCCCCCCCC(=O)N[C@@H](CCCNC(=N)N)C(=O)N[C@@H](CC(N)=O)C(=O)N[C@@H](CC(N)=O)C(=O)N[C@@H](CO)C(=O)N[C@@H](CCCNC(=N)N)C(=O)N[C@@H](CC(C)C)C(=O)NCC(=O)N[C@@H](CC(N)=O)C(=O)NCC(=O)N[C@H](C(=O)N[C@@H](CC(C)C)C(=O)N[C@@H](Cc1ccccc1)C(N)=O)C(C)C [Peptide 29, Pal-RNNSRLGNGVLF-NH2] (Palmitoyl-RNNSRLGNGVLF-NH2)	100 ± 5	1200 ± 50	–	–
CCCCCCCCCCCCCCCC(=O)N[C@@H](CCCNC(=N)N)C(=O)N[C@@H](CC(N)=O)C(=O)N[C@@H](CC(N)=O)C(=O)N[C@@H](CO)C(=O)N[C@@H](CCCNC(=N)N)C(=O)N[C@@H](CC(C)C)C(=O)NCC(=O)N[C@@H](CC(N)=O)C(=O)NCC(=O)N[C@H](C(=O)N[C@@H](CC(C)C)C(N)=O)C(C)C [Peptide 30, Pal-RNNSRLGNGVL-NH2] (Palmitoyl-RNNSRLGNGVL-NH2)	1700 ± 50	3700 ± 50	–	–
CCCCCCCCCCCCCCCC(=O)N[C@@H](CCCNC(=N)N)C(=O)N[C@@H](CC(N)=O)C(=O)N[C@@H](CC(N)=O)C(=O)N[C@@H](CO)C(=O)N[C@@H](CCCNC(=N)N)C(=O)N[C@@H](CC(C)C)C(=O)NCC(=O)N[C@@H](CC(N)=O)C(=O)NCC(=O)N[C@H](C(=O)N[C@@H](CC(C)C)C(=O)N[C@@H](Cc1ccc(O)cc1)C(=O)N[C@@H](C)C(N)=O)C(C)C [Peptide 33, Pal-RNNSRLGNGVLYA-NH2] (Palmitoyl-RNNSRLGNGVLYA-NH2)	100 ± 50	>5000	–	–
CCCCCCCCCCCCCCCC(=O)N[C@@H](CCCNC(=N)N)C(=O)N[C@@H](CC(N)=O)C(=O)N[C@@H](CC(N)=O)C(=O)N[C@@H](CO)C(=O)N[C@@H](CCCNC(=N)N)C(=O)N[C@@H](CC(C)C)C(=O)NCC(=O)N[C@@H](CC(N)=O)C(=O)NCC(=O)N[C@H](C(=O)N[C@@H](CC(C)C)C(=O)N[C@@H](Cc1ccc(O)cc1)C(=O)N[C@@H](C)C(=O)N[C@@H](CO)C(N)=O)C(C)C [Peptide 34, Pal-RNNSRLGNGVLYAS-NH2] (Palmitoyl-RNNSRLGNGVLYAS-NH2)	40 ± 1	>5000	–	–
CCCCCCCCCCCCCCCC(=O)N[C@@H](CCCNC(=N)N)C(=O)N[C@@H](CC(N)=O)C(=O)N[C@@H](CC(N)=O)C(=O)N[C@@H](CO)C(=O)N[C@@H](CCCNC(=N)N)C(=O)N[C@@H](CC(C)C)C(=O)NCC(=O)N[C@@H](CC(N)=O)C(=O)NCC(=O)N[C@H](C(=O)N[C@@H](CC(C)C)C(=O)N[C@@H](Cc1ccc(O)cc1)C(=O)N[C@@H](C)C(=O)N[C@@H](CO)C(=O)N[C@H](C(N)=O)C(C)C)C(C)C [Peptide 35, Pal-RNNSRLGNGVLYASV-NH2] (Palmitoyl-RNNSRLGNGVLYASV-NH2)	50 ± 1	2500 ± 500	–	–
